Reference: patent US8962598B2, “1,2-dihydro-4-hydroxy-2-oxo-quinoline-3-carboxanilides as AHR activators” (Immunahr AB, priority 2010, dated 2015)
In brackets after ≈: the same amount, converted by molar mass.

What was measured:
[1] = Solubility measurements in 0.2 M phosphate buffer pH 7.4; type: physicochemical; conditions: 0.2 M phosphate buffer pH 7.4, ambient temperature, results from two dilutions; for Solubility: 24 h; for solubility at 24 h: phosphate buffer, pH 7.4, aqueous buffer, thermodynamic from solid
Procedure: Solubilities of a di- and a mono-acylated compound were measured in 0.2 M phosphate buffer pH 7.4 and compared with the solubility of the corresponding non-acylated compound.
Saturated compound solutions were prepared by mixing the compounds and the buffer solution at ambient temperature for 24 h followed by separation of the aqueous solution by centrifugation. Standard solutions of compounds (1.00 mg/mL) were prepared in DMSO.
The compound concentrations were measured by HPLC-MS/UV (Waters Alliance 2790 Separations Module/996 PDA detector/Micromass Quattro Micro) after appropriate dilutions of the aqueous saturated solutions ( 1/10 and 1/100) and the standard solutions ( 1/100, 1/200, and 1/1000), respectively, with mobile phase solvent.

human AhR = molecular target: T1, human AhR (Homo sapiens, UniProt P35869); assay: Activation of human AhR, GeneBLAzer CYP1A1-bla LS-180 beta-lactamase reporter-gene assay; type: cell-based; conditions: assay reference compound (control activator)
T1 construct: host or cells: GeneBLAzer CYP1A1-bla LS-180 cell line
T1 sequence (P35869 11-848): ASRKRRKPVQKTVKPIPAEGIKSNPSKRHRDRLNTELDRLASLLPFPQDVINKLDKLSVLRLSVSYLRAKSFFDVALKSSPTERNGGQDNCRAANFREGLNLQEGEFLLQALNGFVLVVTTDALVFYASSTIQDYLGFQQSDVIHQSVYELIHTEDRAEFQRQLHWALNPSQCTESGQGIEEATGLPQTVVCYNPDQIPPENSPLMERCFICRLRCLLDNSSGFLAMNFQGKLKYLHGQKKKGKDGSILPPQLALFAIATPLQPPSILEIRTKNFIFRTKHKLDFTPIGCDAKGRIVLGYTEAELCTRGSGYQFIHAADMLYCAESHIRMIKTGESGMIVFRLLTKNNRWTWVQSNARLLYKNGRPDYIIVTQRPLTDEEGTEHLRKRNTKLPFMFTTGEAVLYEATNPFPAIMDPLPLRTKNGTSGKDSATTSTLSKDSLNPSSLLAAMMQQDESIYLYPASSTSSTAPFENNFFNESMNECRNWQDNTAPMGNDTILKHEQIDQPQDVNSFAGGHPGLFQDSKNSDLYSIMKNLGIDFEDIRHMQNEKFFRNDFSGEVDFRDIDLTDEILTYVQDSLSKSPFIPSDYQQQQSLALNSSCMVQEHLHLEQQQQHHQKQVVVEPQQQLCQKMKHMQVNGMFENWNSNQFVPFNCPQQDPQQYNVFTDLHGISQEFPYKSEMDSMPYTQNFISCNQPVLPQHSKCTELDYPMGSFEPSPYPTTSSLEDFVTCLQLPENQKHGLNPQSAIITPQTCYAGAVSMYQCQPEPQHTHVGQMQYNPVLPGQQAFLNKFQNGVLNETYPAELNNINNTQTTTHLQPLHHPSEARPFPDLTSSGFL
Procedure: Activation of the aryl hydrocarbon receptor can be measured in cell-based reporter-gene assays, which consist of cell lines containing the aryl hydrocarbon recptor and transfected with a reporter gene regulated by activated Ahr via an XRE (xenobiotic response element). AhR activation will thus result in an enhanced expression of the reporter protein (e.g. luciferase) which functional activity can be measured.
Activation of human AhR was measured in the GeneBLAzer® CYP1A1-bla LS-180 cell line (Invitrogen Corporation, Madison, www.invitrogen.com/drugdiscovery) using a beta-lactamase reporter gene (bla) combined with a FRET-enabled substrate sensitive to bla expression.
CYP1A1-bla LS-180 cells are harvested and suspended in Assay Media (OPTI-MEM, 0.5% dialyzed FBS, 0.1 mM NEAA, 1 mM Sodium Pyruvate, 100 U/mL/100 μg/mL Pen/Strep) to a concentration of 625,000 cells/mL. 32 μL of cell suspension (20,000 cells) is added to each well of a 384-well Poly-D-Lysine assay plate. Cells in assay media are incubated for 16-24 hours in the plate at 37° C./5% CO2 in a humidified incubator. 4 μL of a 10× serial dilution of beta-naphthoflavone (control activator starting concentration, 100,000 nM) or compounds are added to appropriate wells. 4 μL of Assay Media is added to all wells to bring the final assay volume to 40 μL. […] The plate is read on a fluorescence plate reader. […]

[2] = tested on: EAE in female Dark Agouti (DA) rats; assay: Experimental autoimmune encephalomyelitis (EAE) MS model in rats; type: in vivo, rat; conditions: FIG. 1
Procedure: EAE was induced day 0 in female Dark Agouti (DA) rats with subcutaneous injection of spinal cord homogenate (SCH, approximately 2 mg, from naive rats) emulsified in incomplete Freunds adjuvant (IFA, total volume 100 ul per rat) at the base of the tail. Disease was evaluated daily from day 5 until the end of the experiment (day 22) according to following criteria: 0=healthy, 1=tail weakness, 2=tail paralysis, 3=tail paralysis and mild waddle, 4=tail paralysis and severe waddle, 5=tail paralysis and paralysis of one limb, 6=tail paralysis and paralysis of both hind limbs, 7=tetraparesis or paralysis of three limbs, and 8=premorbid or dead. Statistical analysis was performed using Prism 5 for Mac OS X (GraphPad Software, San Diego, Calif., USA).
Treatment was initiated day 0 after EAE induction with following treatment injections administered day 3, 6, and 9. The dose was administered as a 500 uL corn oil solution subcutaneously at the lower back. Treatment groups were mixed in all cages to avoid cage effects.
Control (vehicle, corn oil, Sigma Aldrich), 11 animals
Cyclosporin A (positive control, Sigma Aldrich), 10 mg/kg, first dissolved in 70% EtOH to 50 mg/mL, 11 animals
Compound 9 (N-acetyl-N-phenyl-4-acetoxy-5-chloro-1,2-dihydro-1-methyl-2-oxo-quinoline-3-carboxamide, Example 74), 1 mg/kg, 10 animals

Structure (SMILES) | Solubility [1] [µg/mL] | solubility at 24 h [1] [µg/mL] | also measured
CC(=O)Oc1c(C(=O)N(C(C)=O)c2ccccc2)c(=O)n(C)c2ccccc12 [Compound 1, N-acetyl-N-phenyl-4-acetoxy-1,2-dihydro-1-methyl-2-oxo-quinoline-3-carboxamide] | 38 (≈ 100 µM) | 21 (≈ 55.5 µM) | –
Cn1c(=O)c(C(=O)Nc2ccccc2)c(O)c2ccccc21 [Compound 3, N-phenyl-1,2-dihydro-4-hydroxy-1-methyl-2-oxo-quinoline-3-carboxamide, reference compound] | – | < 1 | –
CC(=O)Oc1c(C(=O)Nc2ccccc2)c(=O)n(C)c2ccccc12 [Compound 2, N-phenyl-4-acetoxy-1,2-dihydro-1-methyl-2-oxo-quinoline-3-carboxamide] | 221 (≈ 657 µM) | 186 (≈ 553 µM) | –
O=c1cc(-c2ccccc2)oc2ccc3ccccc3c12 [beta-naphthoflavone] | – | – | EC50 (human AhR): 2090 nM
CC(=O)Oc1c(C(=O)N(C(C)=O)c2ccccc2)c(=O)n(C)c2cccc(Cl)c12 [Compound 9, N-acetyl-N-phenyl-4-acetoxy-5-chloro-1,2-dihydro-1-methyl-2-oxo-quinoline-3-carboxamide] | – | – | severity of the first disease period after discontinuation of treatment ([2]; 1 mg/kg s.c. day 0, 3, 6 and 9, versus vehicle control): lower than for vehicle control treated animals; EAE development (clinical score) ([2]; 1 mg/kg s.c. in corn oil day 0, 3, 6 and 9, DA rats): efficiently prevented EAE development
